Article PMC7184563 (Journal of Medicinal Chemistry, 2020)

Key:
BCL6 [1] = molecular target: T1, BCL6 (Homo sapiens, UniProt P41182); assay type: cell-based; settings: SU-DHL-4
HPLC solubility assay = assay type: physicochemical; settings: kinetic solubility by HPLC in PBS buffer, 1% DMSO, pH 7.4
[2] = assay type: in vivo, mouse; settings: 1 mg/kg iv and 5 mg/kg po, after dosing and 24 h after dose
[3] = PK study in SCID mouse, po; assay type: in vivo; settings: 15 mg/kg po
BCL6 levels in tumor = BCL6 levels in tumor (Homo sapiens, UniProt P41182); test: PK/PD study in OCI-Ly1 DLBCL xenograft model; settings: single dose 15 mg/kg po
[4] = Microsomal clearance assay, mouse liver microsomes; assay type: in vitro ADME
BCL6 BTB = BCL6 BTB (Homo sapiens, UniProt P41182); test: biochemical; settings: BCL6 IC50 (FP), geometric mean
PAMPA permeability = assay type: in vitro ADME
Microsomal clearance = assay type: in vitro ADME
BCL6 [5] = molecular target: T1, BCL6; test: Western blot of BCL6 protein levels, SU-DHL-4 cells; assay type: cell-based; settings: 4 h at 37 °C
BCL6 [6] = molecular target: T1, BCL6; test: Western blot of BCL6 protein levels, OCI-Ly1 cells; assay type: cell-based; settings: 4 h at 37 °C

## COCC1CN(c2ncc(Cl)c(Nc3ccc4c(c3)n(CCC(C)(C)O)c(=O)n4C)n2)CCC1(F)F (centres unmarked) [Compound 27f, 5-((5-Chloro-2-(4,4-difluoro-3-(methoxymethyl)piperidin-1-yl)pyrimidin-4-yl)amino)-3-(3-hydroxy-3-methylbutyl)-1-methyl-1,3-dihydro-2H-benzo[d]imidazol-2-one]
BCL6 [1]
  BCL6 degradation in the IF assay (in words): reduced degradation

## Cn1c(=O)n(CCC(C)(C)O)c2cc(Nc3ccnc(Cl)c3C#N)ccc21 [Compound 17a, 2-Chloro-4-((3-(3-hydroxy-3-methylbutyl)-1-methyl-2-oxo-2,3-dihydro-1H-benzo[d]imidazol-5-yl)amino)nicotinonitrile]
HPLC solubility assay
  Aq. sol. (HPLC, shown in parentheses): (25) μM

## C[C@@H]1CN(c2ncc(Cl)c(Nc3ccc4c(c3)n(CCC(C)(C)O)c(=O)n4C)n2)C[C@H](C)C1(F)F [Compound 1, 5-((5-Chloro-2-((3R,5S)-4,4-difluoro-3,5-dimethylpiperidin-1-yl)pyrimidin-4-yl)amino)-3-(3-hydroxy-3-methylbutyl)-1-methyl-1,3-dihydro-2H-benzo[d]imidazol-2-one]
[2]
  appearance of mice after dosing: appeared normal
[3]
  time mean total blood concentration above the desired concentration: approximately 10 h
BCL6 levels in tumor
  free concentration that leads to degradation of BCL6 in tumor: > 1 nM
  time of maximal effect on tumor BCL6: ~4 h
BCL6 levels in tumor; OCI-Ly1 xenograft, up to 10 h after dosing
  levels of BCL6 in the tumor: clear decrease in levels of BCL6 in the tumor
BCL6 levels in tumor; SCID mice
  adverse events: No visible adverse events were observed

## C[C@@H]1CN(c2ncc(Cl)c(Nc3ccc4c(c3)n(CCC(C)(C)O)c(=O)n4C)n2)C[C@H](C)O1 [Compound 25a, 5-((5-Chloro-2-((2R,6S)-2,6-dimethylmorpholino)pyrimidin-4-yl)amino)-3-(3-hydroxy-3-methylbutyl)-1-methyl-1,3-dihydro-2H-benzo[d]imidazol-2-one]
BCL6 [1]
  BCL6 degradation in the IF assay (in words): not capable of inducing BCL6 degradation

## C[C@@H]1CN(c2ncc(Cl)c(Nc3ccc4c(c3)n(CCC(C)(C)O)c(=O)n4C)n2)C[C@H](C)N1C [Compound 25c, 5-((5-Chloro-2-((3S,5R)-3,4,5-trimethylpiperazin-1-yl)pyrimidin-4-yl)amino)-3-(3-hydroxy-3-methylbutyl)-1-methyl-1,3-dihydro-2H-benzo[d]imidazol-2-one]
BCL6 [1]
  BCL6 degradation in the IF assay (in words): not capable of inducing BCL6 degradation

## CC1CCCN(c2ncc(Cl)c(Nc3ccc4c(c3)n(CCC(C)(C)O)c(=O)n4C)n2)C1 (centres unmarked) [Compound 24a, 5-((5-Chloro-2-(3-methylpiperidin-1-yl)pyrimidin-4-yl)amino)-3-(3-hydroxy-3-methylbutyl)-1-methyl-1,3-dihydro-2H-benzo[d]imidazol-2-one]
BCL6 [1]
  BCL6 degradation in the IF assay (in words): identified as degraders
[4]
  metabolism in mouse microsomes (in words): rapid metabolism

## N#Cc1c(NCc2ccccc2)ccnc1Cl [Compound 2]
BCL6 BTB
  IC50: ~100 µM

## Cn1c(=O)n(C)c2cc(Nc3cc(SCc4ccccc4)ncn3)ccc21 [Compound 3]
BCL6 BTB
  IC50: ~100 µM

## C[C@@H]1C[C@H](C)CN(c2cc(Nc3ccc4c(c3)n(CCC(C)(C)O)c(=O)n4C)c(Cl)cn2)C1 [Compound 26b, 5-((5-Chloro-2-((3S,5R)-3,5-dimethylpiperidin-1-yl)pyridin-4-yl)amino)-3-(3-hydroxy-3-methylbutyl)-1-methyl-1,3-dihydro-2H-benzo[d]imidazol-2-one]
BCL6 [1]
  BCL6 degradation in the IF assay (in words): identified as degraders

## Cn1c(=O)n(CCC(C)(C)O)c2cc(Nc3nc(N4C5CCC4CC(F)(F)C5)ncc3Cl)ccc21 [Compound 28b, 5-((5-Chloro-2-(3,3-difluoro-8-azabicyclo[3.2.1]octan-8-yl)pyrimidin-4-yl)amino)-3-(3-hydroxy-3-methylbutyl)-1-methyl-1,3-dihydro-2H-benzo[d]imidazol-2-one]
BCL6 [1]
  BCL6 degradation in the IF assay (in words): loss of degradation activity

## Cn1c(=O)n(CCC(C)(C)O)c2cc(Nc3nc(N4CCCC(C#N)C4)ncc3Cl)ccc21 (centres unmarked) [Compound 27g, 1-(5-Chloro-4-((3-(3-hydroxy-3-methylbutyl)-1-methyl-2-oxo-2,3-dihydro-1H-benzo[d]imidazol-5-yl)amino)pyrimidin-2-yl)piperidine-3-carbonitrile]
BCL6 [1]
  BCL6 degradation in the IF assay (in words): did not enable degradation

## Cn1c(=O)n(C)c2cc(Nc3ccnc(Cl)c3C#N)ccc21 [Compound 6, 2-Chloro-4-((1,3-dimethyl-2-oxo-2,3-dihydro-1H-benzo[d]imidazol-5-yl)amino)nicotinonitrile]
HPLC solubility assay
  Aq. sol. (HPLC, shown in parentheses): (16) μM
PAMPA permeability
  PAMPA permeability (in words): high PAMPA permeability
Microsomal clearance
  microsomal clearance (in words): Low microsomal clearance

## C[C@@H]1C[C@H](C)CN(c2ncc(Cl)c(Nc3ccc4c(c3)n(CCC(C)(C)O)c(=O)n4C)n2)C1 [Compound 24b, 5-((5-Chloro-2-((3S,5R)-3,5-dimethylpiperidin-1-yl)pyrimidin-4-yl)amino)-3-(3-hydroxy-3-methylbutyl)-1-methyl-1,3-dihydro-2H-benzo[d]imidazol-2-one]
BCL6 [1]
  BCL6 degradation in the IF assay (in words): identified as degraders
[4]
  metabolism in mouse microsomes (in words): rapid metabolism
BCL6 [5]
  BCL6 protein levels by Western blot, SU-DHL-4: concentration-dependent reduction in BCL6 protein levels
BCL6 [6]
  BCL6 protein levels by Western blot, OCI-Ly1: concentration-dependent reduction in BCL6 protein levels

## Cn1c(=O)n(CCC(C)(C)O)c2cc(Nc3nc(N4CC5CCC(C4)C5(F)F)ncc3Cl)ccc21 [Compound 28a, 5-((5-Chloro-2-(8,8-difluoro-3-azabicyclo[3.2.1]octan-3-yl)pyrimidin-4-yl)amino)-3-(3-hydroxy-3-methylbutyl)-1-methyl-1,3-dihydro-2H-benzo[d]imidazol-2-one]
BCL6 [1]
  BCL6 degradation in the IF assay (in words): loss of degradation activity

## Cn1c(=O)n(CCC(C)(C)O)c2cc(Nc3nc(N4CCC(C(F)(F)F)CC4)ncc3Cl)ccc21 [Compound 27h, 5-((5-Chloro-2-(4-(trifluoromethyl)piperidin-1-yl)pyrimidin-4-yl)amino)-3-(3-hydroxy-3-methylbutyl)-1-methyl-1,3-dihydro-2H-benzo[d]imidazol-2-one]
BCL6 [1]
  BCL6 degradation in the IF assay (in words): loss of degradation activity
